Several values for one entry are separate records, joined by “and”; a condition that tells them apart may be missing. Equal entries are not always repeated. Records with an inconclusive call do not appear.
Tested on: MX-1 breast xenograft, intrarenal, nude mice, tumor weight
Assay: NCI In Vivo Anticancer Drug Screen. Data for tumor model Human Mammary Carcinoma MX-1 Xenograft (intrarenal inoculation) in NU/NU BALB/C (nude) mice
Conditions: endpoint: mean tumor weight change, higher = larger tumour
Summary of the method: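 Transplantable tumors established in mice; animals dosed with compound or vehicle; survival or tumor size then recorded. Result reported as treated (T) divided by vehicle control (C).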

[1] = dose: 300.0 mg/kg/injection, schedule: Q04DX003 (ip), vehicle: saline with Tween-80
[2] = dose: 600.0 mg/kg/injection, schedule: Q04DX003 (ip), vehicle: saline with Tween-80

Which T/C (dose: 16.0 mg/kg/injection, schedule: Q04DX003 (sc), vehicle: saline with Tween-80) does the source give for `CCCCCc1cc(/C=C2/N=C(c3ccc[nH]3)C=C2OC)[nH]c1C` here?
The T/C was 93 % of control.

And the T/C (dose: 32.0 mg/kg/injection, schedule: Q04DX003 (sc), vehicle: saline with Tween-80)?
The T/C was 93 % of control.

And the T/C (dose: 64.0 mg/kg/injection, schedule: Q04DX003 (sc), vehicle: saline with Tween-80)?
Its T/C is 75 % of control.

What about the T/C (dose: 128.0 mg/kg/injection, schedule: Q04DX003 (sc), vehicle: saline with Tween-80) of the same compound?
Its T/C is 46 % of control.

What does the source list for `O=CNCO`?
T/C (dose: 300.0 mg/kg/injection, schedule: Q01DX010 (sc), vehicle: water): 68 % of control; T/C (dose: 600.0 mg/kg/injection, schedule: Q01DX010 (sc), vehicle: water): 39 % of control; T/C (dose: 1200.0 mg/kg/injection, schedule: Q01DX010 (sc), vehicle: water): 11 % of control; T/C (dose: 2000.0 mg/kg/injection, schedule: Q01DX010 (sc), vehicle: water): 8 % of control

`Cc1ccc(C2NC(=O)c3ccccc3N2)s1` (stereo not drawn) was tested. Which T/C (dose: 600.0 mg/kg/injection, schedule: Q04DX003 (sc), vehicle: Klucel (hydroxypropylcellulose) (HPC)) did it give?
Its T/C is 105 % of control.

And the T/C (dose: 1200.0 mg/kg/injection, schedule: Q04DX003 (sc), vehicle: Klucel (hydroxypropylcellulose) (HPC))?
Its T/C is 106 % of control.

What about the T/C (dose: 2400.0 mg/kg/injection, schedule: Q04DX003 (sc), vehicle: Klucel (hydroxypropylcellulose) (HPC)) of the same compound?
The T/C was 118 % of control.

What about the T/C (dose: 4800.0 mg/kg/injection, schedule: Q04DX003 (sc), vehicle: Klucel (hydroxypropylcellulose) (HPC)) of the same compound?
Its T/C is 97 % of control.

For `COc1cc([C@@H]2c3cc4c(cc3[C@@H](OC3OC5CO[C@@H](c6cccs6)OC5C(O)C3O)[C@H]3COC(=O)[C@H]23)OCO4)cc(OC)c1O` (stereo partly drawn), which T/C (dose: 8.75 mg/kg/injection, schedule: Q01DX010 (ip), vehicle: saline) is on record?
The T/C was 82 % of control.

And the T/C (dose: 17.5 mg/kg/injection, schedule: Q01DX010 (ip), vehicle: saline)?
Its T/C is 74 % of control.

How did the T/C (dose: 75.0 mg/kg/injection, schedule: Q04DX003 (sc), vehicle: saline) turn out when `CC1CN1P1(N2CC2C)=NP(N2CC2C)(N2CC2C)=NP(N2CC2C)(N2CC2C)=N1` (stereo not drawn) was run?
Its T/C is 51 % of control.

What about the T/C (dose: 150.0 mg/kg/injection, schedule: Q04DX003 (sc), vehicle: saline) of the same compound?
The T/C was 3 % of control.

`Nc1ccn(C2CC(N)C(CO)O2)c(=O)n1` (stereo not drawn) was tested. Which T/C (dose: 75.0 mg/kg/injection, schedule: Q04DX003 (ip), vehicle: saline with Tween-80) did it give?
The T/C was 77 % of control.

And the T/C (dose: 150.0 mg/kg/injection, schedule: Q04DX003 (ip), vehicle: saline with Tween-80)?
Its T/C is 105 % of control.

What about the T/C [1] of the same compound?
Its T/C is 74 % of control.

What about the T/C [2] of the same compound?
The T/C was 82 % of control.

`NC(CSSCC(N)C(=O)O)C(=O)O` (stereo not drawn) was tested. Which T/C (dose: 300.0 mg/kg/injection, schedule: Q04DX003 (ip), vehicle: saline) did it give?
Its T/C is 88 % of control.

And the T/C (dose: 600.0 mg/kg/injection, schedule: Q04DX003 (ip), vehicle: saline)?
Its T/C is 92 % of control.

What about the T/C (dose: 1200.0 mg/kg/injection, schedule: Q04DX003 (ip), vehicle: saline) of the same compound?
Its T/C is 104 % of control.

What about the T/C (dose: 2400.0 mg/kg/injection, schedule: Q04DX003 (ip), vehicle: saline) of the same compound?
Its T/C is 80 % of control.

Which results are given for `COC1/C=C/C=C(/C)Cc2cc(O)c(Cl)c(c2)N(C)C(=O)CC(OC(=O)C(C)C)C2(C)OC2C(C)C2CC1(O)NC(=O)O2` (stereo not drawn)?
T/C (dose: 1.0 mg/kg/injection, schedule: Q04DX003 (sc), vehicle: saline + alcohol): 70 % of control; T/C (dose: 2.0 mg/kg/injection, schedule: Q04DX003 (sc), vehicle: saline + alcohol): 33 % of control; T/C (dose: 4.0 mg/kg/injection, schedule: Q04DX003 (sc), vehicle: saline + alcohol): -47 % of control; T/C (dose: 8.0 mg/kg/injection, schedule: Q04DX003 (sc), vehicle: saline + alcohol): -100 % of control

Which results are given for `O=C1CCC(=O)N1CO`?
T/C (dose: 300.0 mg/kg/injection, schedule: Q04DX003 (sc), vehicle: saline): 73 % of control; T/C (dose: 600.0 mg/kg/injection, schedule: Q04DX003 (sc), vehicle: saline): 86 % of control

`COc1ccc(N=N/N=c2\sc3cc(OC)ccc3n2C)cc1` was tested. Which T/C (dose: 30.0 mg/kg/injection, schedule: Q04DX003 (ip), vehicle: saline with Tween-80) did it give?
The T/C was 68 % of control.

What about the T/C (dose: 60.0 mg/kg/injection, schedule: Q04DX003 (ip), vehicle: saline with Tween-80) of the same compound?
The T/C was 87 % of control.

And the T/C (dose: 120.0 mg/kg/injection, schedule: Q04DX003 (ip), vehicle: saline with Tween-80)?
Its T/C is 65 % of control.

And the T/C (dose: 240.0 mg/kg/injection, schedule: Q04DX003 (ip), vehicle: saline with Tween-80)?
The T/C was 62 % of control.

Which results are given for `CNNCc1ccc(C(=O)NC(C)C)cc1`?
T/C (dose: 50.0 mg/kg/injection, schedule: Q01DX010 (sc), vehicle: saline): 97 % of control; T/C (dose: 100.0 mg/kg/injection, schedule: Q01DX010 (sc), vehicle: saline): 70 % of control; T/C (dose: 200.0 mg/kg/injection, schedule: Q01DX010 (sc), vehicle: saline): 45 % of control; T/C (dose: 400.0 mg/kg/injection, schedule: Q01DX010 (sc), vehicle: saline): 4 % of control

With `COC1C(CO)OC(n2cnc3c(=S)nc(N)[nH]c32)C1O` (stereo not drawn) as the compound, how does the T/C (dose: 150.0 mg/kg/injection, schedule: Q04DX003 (sc), vehicle: Klucel (hydroxypropylcellulose) (HPC)) read?
The T/C was 105 % of control.

What about the T/C (dose: 300.0 mg/kg/injection, schedule: Q04DX003 (sc), vehicle: Klucel (hydroxypropylcellulose) (HPC)) of the same compound?
The T/C was 48 % of control.

Which T/C (dose: 1.0 mg/kg/injection, schedule: Q04DX003 (ip), vehicle: saline + alcohol) does the source give for `CCC(/C=C/C1OC(=O)C=CC1C)=C\C(C)C/C=C/C(C)=C/C(C)C(=O)C(C)C(O)C(C)C/C(C)=C/C(=O)O` (stereo not drawn) here?
Its T/C is 114 % of control.

And the T/C (dose: 2.0 mg/kg/injection, schedule: Q04DX003 (ip), vehicle: saline + alcohol)?
Its T/C is 109 % of control.

What about the T/C (dose: 4.0 mg/kg/injection, schedule: Q04DX003 (ip), vehicle: saline + alcohol) of the same compound?
The T/C was 71 % of control.

What about the T/C (dose: 75.0 micrograms/kg/injection, schedule: Q04DX003 (ip), vehicle: saline + alcohol) of the same compound?
Its T/C is 119 % of control.

What about the T/C (dose: 150.0 micrograms/kg/injection, schedule: Q04DX003 (ip), vehicle: saline + alcohol) of the same compound?
Its T/C is 114 % of control.

And the T/C (dose: 300.0 micrograms/kg/injection, schedule: Q04DX003 (ip), vehicle: saline + alcohol)?
The T/C was 107 % of control.

What about the T/C (dose: 600.0 micrograms/kg/injection, schedule: Q04DX003 (ip), vehicle: saline + alcohol) of the same compound?
The T/C was 102 % of control.

How did the T/C (dose: 300.5 mg/kg/injection, schedule: Q04DX003 (sc), vehicle: water) turn out when `C=C/C(C)=C/[C@H](C)C(=O)C[C@H](O)CC1CC(=O)NC(=O)C1` was run?
Its T/C is 73 % of control.

And the T/C (dose: 600.0 mg/kg/injection, schedule: Q04DX003 (sc), vehicle: water)?
The T/C was 98 % of control.

And the T/C (dose: 1200.0 mg/kg/injection, schedule: Q04DX003 (sc), vehicle: water)?
Its T/C is 89 % of control.

With `CS(=O)(=O)CS(=O)(=O)OCCF` as the compound, how does the T/C (dose: 6.25 mg/kg/injection, schedule: Q04DX003 (ip), vehicle: saline) read?
Its T/C is 104 % of control.

What about the T/C (dose: 12.5 mg/kg/injection, schedule: Q04DX003 (ip), vehicle: saline) of the same compound?
Its T/C is 84 % of control.

And the T/C (dose: 25.0 mg/kg/injection, schedule: Q04DX003 (ip), vehicle: saline)?
The T/C was 69 % of control.

Which T/C [1] does the source give for `COC1=C(OC)C(=O)C(SC/C=C(\C)CCCC(C)CCCC(C)CCCC(C)C)=CC1=O` (stereo not drawn) here?
Its T/C is 220 % of control.

And the T/C [2]?
Its T/C is 61 % of control.

What about the T/C (dose: 1200.0 mg/kg/injection, schedule: Q04DX003 (ip), vehicle: saline with Tween-80) of the same compound?
Its T/C is 75 % of control.

With `CCCCCCCC1C(=O)OC2CC3C(C)=CC(=O)C(O)C3(C)C3C4(O)OCC23C1C(C)C4O` (stereo not drawn) as the compound, how does the T/C (dose: 10.0 mg/kg/injection, schedule: Q04DX003 (ip), vehicle: Klucel (hydroxypropylcellulose) (HPC)) read?
The T/C was 89 % of control.

What about the T/C (dose: 20.0 mg/kg/injection, schedule: Q04DX003 (ip), vehicle: Klucel (hydroxypropylcellulose) (HPC)) of the same compound?
Its T/C is 107 % of control.

What about the T/C (dose: 40.0 mg/kg/injection, schedule: Q04DX003 (ip), vehicle: Klucel (hydroxypropylcellulose) (HPC)) of the same compound?
Its T/C is 53 % of control.

What does the source list for `COc1ccc2[nH]c3ccc4cc[n+](CCN5CCC(C6CCN(CC[n+]7ccc8ccc9[nH]c%10ccc(OC)cc%10c9c8c7)CC6)CC5)cc4c3c2c1`?
T/C (dose: 4.0 mg/kg/injection, schedule: Q04DX003 (ip), vehicle: water): 100 % of control; T/C (dose: 8.0 mg/kg/injection, schedule: Q04DX003 (ip), vehicle: other): 69 % of control; T/C (dose: 8.0 mg/kg/injection, schedule: Q04DX003 (ip), vehicle: water): 38 % of control; T/C (dose: 16.0 mg/kg/injection, schedule: Q04DX003 (ip), vehicle: other): 92 % of control; T/C (dose: 16.0 mg/kg/injection, schedule: Q04DX003 (ip), vehicle: water): 35 % of control; T/C (dose: 23.04 mg/kg/injection, schedule: Q04DX003 (ip), vehicle: other): 101 % of control; T/C (dose: 32.0 mg/kg/injection, schedule: Q04DX003 (ip), vehicle: other): 86 % of control; T/C (dose: 32.0 mg/kg/injection, schedule: Q04DX003 (ip), vehicle: water): 35 % of control; T/C (dose: 38.4 mg/kg/injection, schedule: Q04DX003 (ip), vehicle: other): 53 % of control; T/C (dose: 64.0 mg/kg/injection, schedule: Q04DX003 (ip), vehicle: other): 32 % of control and 42 % of control; T/C (dose: 64.0 mg/kg/injection, schedule: Q04DX003 (ip), vehicle: water): 8 % of control

What does the source list for `CN(C)N=Nc1ccc(C(=O)O)cc1`?
T/C (dose: 100.0 mg/kg/injection, schedule: Q04DX003 (ip), vehicle: saline): 30 % of control; T/C (dose: 200.0 mg/kg/injection, schedule: Q04DX003 (ip), vehicle: saline): 2 % of control; T/C (dose: 400.0 mg/kg/injection, schedule: Q04DX003 (ip), vehicle: saline): -60 % of control

From PubChem BioAssay AID298 (DTP/NCI, 2004)
